Data reported in patent publication US12383499B2, “Scale up synthesis of silicasome nanocarriers” (The Regents of the University of California, priority 2018, dated 2025).
Structures can show the parent of a compound that is named as a salt.

Columns and labels:
[1] = test system: orthotopic KPC-derived PDAC tumor; experiment: Efficacy and survival in the orthotopic KPC-derived PDAC model; assay type: in vivo, B6/129SF1/J mice; details: 40 mg/kg twice per week, three IV administrations, n=3
[2] = test system: MC38 cells; experiment: MTS cytotoxicity assay, MC38 cells; assay type: cell-based, murine; details: MC38 colon cancer cells
Method: (§1) The cytotoxicity of purified MSNPs was assessed in a standard MTS assay (CellTiter 96® AQueous One Solution Cell Proliferation Assay, Promega). KPC or MC38 cells were plated at a density of 5×10^3 cells per well in a 96-well plate and cultured for 24 hr. The medium was replaced with fresh medium containing the different NPs at the indicated concentrations. Non-treated cells were used as control. After a 48 hr treatment, the medium was replaced with 100 μL fresh medium containing MTS solution (5:1, v/v medium/CellTiter 96® Aqueous stock solution) for further culture at 37° C. for 1 hr. The absorbance of the culture wells at 490 nm was directly recorded by a microplate reader (M5e, Molecular Device, USA). Wells without cells but contained the same MTS solution were used as blank. The relative cell viability (%) is [(the absorption of treated well−blank)/(the absorption of control well−blank)]×100.

[3] = test system: KPC cells; experiment: MTS cytotoxicity assay, KPC cells; assay type: cell-based, murine; details: KPC pancreatic cancer cells
Method: as §1

[4] = Toxicity study (bone marrow, GI tract, liver, body weight); assay type: in vivo, C57BL/6 mice; details: 24 h after 4 IV injections of 40 mg/kg irinotecan
Description: Irinotecan exerts major systemic toxicological effects (e.g., neutropenia and diarrhea) when used as a free drug monotherapy or in combination with 5-FU (i.e., FOLFIRI regimen) in CRC (Cunningham et al. (1998) The Lancet, 352, 1413-1418; Rougier et al. (1998) The Lancet, 352: 1407-1412; Saltz et al. (2000) N. Engl. J Med. 343: 905-914). This constitutes one of the principal reasons for considering encapsulated irinotecan delivery. […] The possibility of acute myelosuppression effects was assessed by the collection of whole blood 24 h after the last IV injection, as well as looking at bone marrow cellularity (Id.). […] The visual appearance was confirmed by computer software that semi-quantitatively scored the total marrow cellularity and hematopoietic nuclei in the histology images (FIG. 13, panel A) (Travlos (2006) Toxicol. Pathol. 34: 548-565). […]
To compare the toxicity of different irinotecan formulations, a toxicity study was performed in healthy female C57BL/6 mice using a published protocol (Iusuf et al. (2014) Mol. Cancer Ther. 13: 492-503). […] H&E staining to assess bone marrow and hematopoietic cellularity in the sternum was analyzed by Aperio ImageScope software (Travlos (2006) Toxicol. Pathol. 34: 548-565).

[5] = test system: orthotopic MC38 tumor; experiment: Efficacy and survival in the orthotopic MC38 tumor chunk colon cancer model; assay type: in vivo, C57BL/6 mice
[6] = test system: non-metastatic PDAC; details: cited from earlier work

Compound	primary tumor growth and metastasis (IVIS imaging) [1]	in vitro killing effect (MTS) [2]	in vitro killing effect (MTS) [3]	bone marrow cellularity / myelosuppressive effects (sternum H&E) [4]	neutrophil count / neutropenia (differential WBC counts) [4]	tumor growth by IVIS bioluminescence imaging ([5]; 40 mg/kg irinotecan equivalent IV twice per week, up to day 21, n=6)	survival (Kaplan-Meier, Log-rank) ([5]; 40 mg/kg irinotecan equivalent IV twice per week, up to six administrations, n=6)	rate of apoptosis (cleaved caspase-3 IHC) in orthotopic tumors ([5]; 24 h after the 4th IV injection, 40 mg/kg, n=3) [%]	disease-free survival [6] [months]
CCc1c2c(nc3ccc(OC(=O)N4CCC(N5CCCCC5)CC4)cc13)-c1cc3c(c(=O)n1C2)COC(=O)[C@]3(O)CC [free irinotecan, Irinotecan hydrochloride trihydrate]	inefficient tumor inhibition	most robust killing effect	most robust killing effect	significant myelosuppressive effects	significant degree of neutropenia	no significant tumor growth inhibition	no significant survival benefit	~2.5	–
Nc1ccn([C@@H]2O[C@H](CO)[C@@H](O)C2(F)F)c(=O)n1 [gemcitabine]	–	–	–	–	–	–	–	–	12.8
